Data on four compounds can be found in US20090209571A1, “Phenanthrene derivatives as MPGES-1 inhibitors” (priority 2006, published 2009).

The target in the assay is T1, human mPGES-1 (Homo sapiens, UniProt O14684).
T1 construct: expressed in transfected cells; host or cells: CHO-K1 cells, transiently transfected; microsomal fraction used
T1 sequence (O14684 1-152): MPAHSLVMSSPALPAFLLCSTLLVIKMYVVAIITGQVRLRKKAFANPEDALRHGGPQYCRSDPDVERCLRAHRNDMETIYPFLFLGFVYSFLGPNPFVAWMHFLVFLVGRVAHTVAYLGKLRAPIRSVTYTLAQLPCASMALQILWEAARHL
As to the kind of experiment: Microsomal Prostaglandin E Synthase Assay. The assay is classed as biochemical. The note with it: microsomal fractions from CHO-K1 cells transiently transfected with human mPGES-1 cDNA; 1 μM PGH2; PGE2 by EIA; average of at least n=3; read-out: h-CHO (nM), potency expressed as IC50. The method, then:
Compounds are tested as inhibitors of prostaglandin E synthase activity in microsomal prostaglandin e synthases, whole cell and in vivo assays. These assays measure prostaglandin E2 (PGE2) synthesis using either Enzymatic Immunoassay (EIA) or mass spectrometry. Cells used for microsomal preparation are CHO-K1 cells transiently transfected with plasmids encoding the human mPGES-1 cDNA. Cells used for cell-based experiments are human A549 (which express human mPGES-1). Guinea pigs are used to test the activity of selected compounds in vivo. In all these assays, 100% activity is defined as the PGE2 production in vehicle-treated samples. IC50 and ED50 represent the concentration or dose of inhibitor required to inhibit PGE2 synthesis by 50% as compared to the uninhibited control.
Prostaglandin E synthase microsomal fractions are prepared from CHO-K1 cells transiently transfected with plasmid encoding the human mPGES-1 cDNA. Microsomes are then prepared and the PGES assay begins with the incubation of 5 μg/ml microsomal PGES-1 with compound or DMSO (final 1%) for 20-30 minutes at room temperature. The enzyme reactions are performed in 200 mM KPi pH 7.0, 2 mM EDTA and 2.5 mM GSH-reduced form. The enzymatic reaction is then initiated by the addition of 1 μM final PGH2 substrate prepared in isopropanol (3.5% final in assay well) and incubated at room temperature for 30 seconds. The reaction is terminated by the addition of SnCl2 in 1N HCl (1 mg/ml final). Measurement of PGE2 production in the enzyme reaction aliquots is done by EIA using a standard commercially available kit (Cat #: 901-001 from Assay Designs).
The potency is expressed as IC50 and the value indicated is an average of at least n=3.
In general, IC50 refers to the concentration that inhibits the measured activity by half. Take `Fc1cccc(Cl)c1-c1nc2c3ccc(Cl)cc3c3cc(Br)sc3c2[nH]1` [Example 15]: the IC50 amounted to 1.8 nM. As to `N#Cc1cccc(C#N)c1-c1nc2c3ccc(Cl)cc3c3ccoc3c2[nH]1` [Example 12], the IC50 came out at 3.2 nM. For the compound `Fc1cccc(Cl)c1-c1nc2c3ccccc3c3sc(Cl)cc3c2[nH]1` [Example 2], the IC50 is 10.5 nM. For the compound `CC(C)(O)C#Cc1ccc2c(c1)c1c(Cl)c(Cl)sc1c1[nH]c(-c3c(C#N)cccc3C#N)nc21` [Example 28], the half-inhibitory concentration (IC50) came out at 1.5 nM.
